# Data reported in US10045978B2 (AB SCIENCE, priority 2010, dated 2018).
# Assays:
# [1] = system: patients with smoldering systemic, indolent systemic or cutaneous mastocytosis with handicap; experiment: phase 3 study AB06006, masitinib versus placebo; format: in vivo, human
# From the text: The trial lasted 24 weeks with possible extension. In accordance with protocol amendment version 7.0 (v7), the study population was amended to a more restricted subpopulation of mastocytosis. […] The trial lasted 24 weeks with possible extension. […] To be noted, for the purpose of efficacy analysis a patient was classified as severe if they suffered from at least one of the main handicaps constituting the primary endpoint: […] The criterion of “at least two of the following handicaps” including handicaps on stools and micturition, was relaxed to “at least one of the main handicaps” (i.e. pruritus, flushes, depression and fatigue). […] At each patient evaluation between weeks 8 and 24, each of the above four severe symptoms was evaluated. […] In this case, missing data was imputed as failure (missing=failure as primary analysis). • Case 2: discontinuation for a documented reason excluding toxicity or lack of efficacy. In this case, non-observed values can be considered as Missing At Random (MAR), and no imputation will be done (Observed Cases). • Replacement of missing value for patients present at the visit: If data was missing despite the patient being present at the visit, said missing data was not replaced. Secondary Analysis: […] (asthenia). • A second group comprised patients diagnosed as having severe indolent systemic mastocytosis, severe smoldering systemic mastocytosis, or severe cutaneous mastocytosis. […] This group provides comparative analysis for patient selection according to variant of mastocytosis (i.e. systemic versus cutaneous). • A third group comprised all randomized patients to study AB06006, corresponding therefore to the least restricted population, comprising patients with severe/non severe indolent and smoldering systemic mastocytosis, and severe/non severe cutaneous mastocytosis. This group provides comparative analysis based on patient selection according to severity of mast cell mediator release symptoms. […] ≥40. Diff=absolute difference in response rates between treatment-arms of a given population (masitinib arm minus placebo arm). Factor Diff=ratio of 'Diff' between compared populations showing relative superiority of response rate for severe systemic population over the comparator population. […] ****PF=patients with both pruritus and flushes handicap at baseline.
# [2] = system: patients with indolent forms of mastocytosis with handicap; conditions: in vivo
# [3] = system: patients with indolent mastocytosis with handicap bearing the D816V c-Kit mutation; experiment: Example 3 a posteriori analysis of new handicap and response criteria; format: in vivo, human
# From the text: Of relevance to the invention described, the concepts of a restricted mast cell mediator release associated handicap population and a more stringently defined response criterion have been explored via a posteriori data analysis of a common study population. […] (Note, any discrepancies between directly equivalent data presented in example 2 and example 3 are due to the former being taken from preliminary data analysis and the latter being extended/validated data from that study).
# A posteriori data analysis was carried out on a new, restricted mast cell mediator release associated handicap population (wherein patients were classified as having a handicap if after appropriate symptomatic treatments they fulfilled at least one of the following criteria: number of flushes/week ≥7; pruritus score ≥6; number of stools ≥4/day (i.e. diarrhea); micturition frequency ≥8/day (i.e. pollakiuria); Hamilton rating for depression ≥14; Fatigue Impact Scale (FIS) score ≥75; or EORTC quality-of-life questionnaire (QLQ-C30) score ≥60). […]
# [4] = moderate baseline handicap, all patients
# [5] = moderate baseline handicap, all patients (n = 110)
# [6] = moderate baseline handicap, severe indolent/smoldering systemic
# [7] = moderate baseline handicap, severe indolent/smoldering systemic (n = 67)
# [8] = moderate baseline handicap, severe systemic vs all patients
# [9] = severe baseline handicap, severe cutaneous/indolent/smoldering
# [10] = severe baseline handicap, severe cutaneous/indolent/smoldering (n = 110)
# [11] = severe baseline handicap, severe indolent/smoldering systemic
# [12] = severe baseline handicap, severe indolent/smoldering systemic (n = 67)
# [13] = severe baseline handicap, severe systemic vs severe cutaneous/indolent/smoldering
structure (smiles),measurement,setting,value
"Cc1ccc(NC(=O)c2ccc(CN3CCN(C)CC3)cc2)cc1Nc1nc(-c2cccnc2)cs1 [masitinib, 4-(4-methylpiperazin-1-ylmethyl)-N-[4-methyl-3-(4-pyridin-3ylthiazol-2-ylamino)phenyl]benzamide]",2H[75%] Diff (masitinib arm minus placebo arm),[1]; [4],2.9%
same,3H[75%] Diff (masitinib arm minus placebo arm),[1]; [4],2.3%
same,4H[75%] Diff (masitinib arm minus placebo arm),[1]; [4],0.4%
same,PF Diff (masitinib arm minus placebo arm),[1]; [4],0.2%
same,2H[75%] cumulative response,[1]; [5],23.3%
same,3H[75%] cumulative response,[1]; [5],20.3%
same,4H[75%] cumulative response,[1]; [5],16.3%
same,PF cumulative response,[1]; [5],26.9%
same,2H[75%] Diff (masitinib arm minus placebo arm),[1]; [6],12.2%
same,3H[75%] Diff (masitinib arm minus placebo arm),[1]; [6],12.8%
same,4H[75%] Diff (masitinib arm minus placebo arm),[1]; [6],10.1%
same,PF Diff (masitinib arm minus placebo arm),[1]; [6],10.7%
same,2H[75%] cumulative response,[1]; [7],28.2%
same,3H[75%] cumulative response,[1]; [7],24.8%
same,4H[75%] cumulative response,[1]; [7],19.6%
same,PF cumulative response,[1]; [7],28.7%
same,2H[75%] Factor Diff,[1]; [8],4.2
same,3H[75%] Factor Diff,[1]; [8],5.6
same,4H[75%] Factor Diff,[1]; [8],25.3
same,PF Factor Diff,[1]; [8],53.5
same,2H[75%] Diff (masitinib arm minus placebo arm),[1]; [9],7.4%
same,3H[75%] Diff (masitinib arm minus placebo arm),[1]; [9],6.3%
same,4H[75%] Diff (masitinib arm minus placebo arm),[1]; [9],3.3%
same,PF Diff (masitinib arm minus placebo arm),[1]; [9],6.9%
same,2H[75%] cumulative response,[1]; [10],22.0%
same,3H[75%] cumulative response,[1]; [10],20.0%
same,4H[75%] cumulative response,[1]; [10],15.4%
same,PF cumulative response,[1]; [10],30.6%
same,2H[75%] Diff (masitinib arm minus placebo arm),[1]; [11],16.5%
same,3H[75%] Diff (masitinib arm minus placebo arm),[1]; [11],15.2%
same,4H[75%] Diff (masitinib arm minus placebo arm),[1]; [11],11.1%
same,PF Diff (masitinib arm minus placebo arm),[1]; [11],17.8%
same,2H[75%] cumulative response,[1]; [12],27.2%
same,3H[75%] cumulative response,[1]; [12],24.9%
same,4H[75%] cumulative response,[1]; [12],18.6%
same,PF cumulative response,[1]; [12],35.4%
same,2H[75%] Factor Diff,[1]; [13],2.2
same,3H[75%] Factor Diff,[1]; [13],2.4
same,4H[75%] Factor Diff,[1]; [13],3.4
same,PF Factor Diff,[1]; [13],2.6
same,deaths during the study,[2],No deaths
same,overall response rate,"[3]; new handicap thresholds and response criterion, n=11",52%
same,overall response rate,"[3]; original handicap thresholds and response criterion, n=14",62%
